Data reported in PMC10861593, “Kisspeptin-10 binding to Gpr54 in osteoclasts prevents bone loss by activating Dusp18-mediated dephosphorylation of Src” (Nature Communications, 2024).
Entries after “also recorded” stand apart in the source; their conditions may differ. Where no end group is shown, it is not given here. [ ]: non-standard residue; d: D form. azaGly = NNC(=O)O

Legend:
GPR54 = test system: GPR54; design: method as in PMID 22975302; settings: cited from earlier work
From the text: (§1) Bone targeting Kp-10 ([…] D-Tyr–Asn-(D-Trp)-Asn-Ser-Phe-(azaGly)-Leu-Arg (Me)-Phe-NH2) was designed using six repetitive sequences of aspartate, serine, and serine, which is a bone surface-targeting delivery system as previously described.

[1] = cited from earlier work
From the text: as §1

FSH and LH = assay: Elisa of serum FSH and LH; format: in vivo, mouse; settings: 10 nmol/kg twice per week for two months, versus vehicle; n = 6 per group
From the text: Supplementary Fig. 16 a Representative image of Von Kossa staining of sham-operated female C57 mice treated with vehicle (Sham, n=4), ovariectomized mice (OVX, n=3), and OVX mice treatment with 1 nmol/kg Kp-10 (n=6),10 nmol/kg Kp-10 (n=6),1 nmol/kg (DSS)*6-Kp-10 (n=5) or 10 nmol/kg (DSS)*6-Kp-10 (n=6) twice one week by intraperitoneal injection for two months. […] BV/TV, bone volume as a fraction of total bone volume; Tb. Th, trabecular thickness; Tb. Sp, trabecular separation; Tb. N, trabecular number. c Elisa assay showing LH, FSH derived from the serum of sham-operated female C57 mice treated with vehicle (Sham+ vehicle) or 10 nmol/kg (DSS)*6-Kp-10 (Sham+10 nmol/kg Kp-10), ovariectomized mice treated with vehicle (OVX+ vehicle) or 10 nmol/kg (DSS)*6-Kp-10 (OVX+ 10 nmol/kg Kp-10) twice one week by intraperitoneal injection for two months. n=6 per group. Error bars are ± SEM. P-values were determined by two-way ANOVA analysis (b, c) ***P <0.001, ****P <0.0001. “ns” means no significant difference. Representative results were observed from at least three independent experiments. Source data are provided as a Source Data file.

OVX mice = assay: OVX-induced bone loss model (and sham-operated mice); format: in vivo, mouse
From the text: Fig. 7 Kp-10 ameliorated OVX-induced bone loss. a, c Representative micro-CT images of femoral trabecular bone (a) and cortical bone (c). Female C57 mice treated with vehicle (Sham) or 50 nmol/kg (DSS)*6-Kp-10, ovariectomized mice (OVX) treated with vehicle or 50nmol/kg (DSS)*6-Kp-10 twice one week by intraperitoneal injection (n = 6 per group). Scale bar, 500 µm. b, d Parameter analysis of femurs from the mice above. BMD bone mineral density, BV/TV bone volume as a fraction of total bone volume, Tb.Th trabecular thickness, Tb.N trabecular number, Tb.Sp trabecular separation. e Representative TRAP staining images of femurs from Fig. 7a. f Histomorphometry analysis of the femurs from Fig. 7a. Oc.S/BS osteoclast surface per bone surface, N.Oc/B.Pm osteoclast bone surface density, ES/BS eroded surface per bone surface. Data represent means ± SEM. P values were determined by one-way ANOVA analysis (b, d, f). Representative results were obtained from at least three independent experiments. Source data are provided as a Source Data file.
3D micro-CT analyses were performed as previously described. We scanned the femur using in vitro X-ray microtomography (Skyscan 1272, Bruker micro CT) at a pixel size of 9 µm, and analyzed the results according to the manufacturer’s instructions. Region-of-interest (ROI) was defined from 10 to 110 image slices, where the growth plate slice was defined as 0 mm. The contrast was defined from 68–255; 3D analysis, BMD, and 3D models were analyzed using CTAn software (Bruker micro CT). 3D models were adjusted in CT Vox software (Bruker micro CT).
Bone tissue was removed of excess tissues and fixed with 4% formalin, decalcified with 0.5 M EDTA for 10–14 days, embedded with paraffin, sectioned, and stained using the TRAP staining kit (Sigma-Aldrich, 387A-1KT). The third lumbar spine vertebrae (L3) were fixed with 4% formalin, sectioned, and subjected to Von Kossa staining as described previously[60],[61]. For double calcian labeling assay, 4−5 week-old mice were administrated calcian (30 μg/mL) through intraperitoneal injection for the first time and the second time after 10 days. The third lumbar spine vertebrae (L3) were fixed with 4% formalin, sectioned, and subjected to Goldner’s Masson trichrome staining, or acquisition of fluorescence images. Histomorphometric measurements were made using the OsteoMeasure Analysis System (Osteometrics, Atlanta, GA, USA) according to standard criteria.
For animal studies in vivo, mice were randomized for weight. For the OVX-induced bone loss model, 2-month-old female C57BL/6 mice were sham-operated (sham) or ovariectomized (OVX) and randomly divided into indicated groups. Vehicle, Kp-10 or (DSS)*6-Kp-10 was injected into the tail vein twice per week. After two months of treatment, the femurs and the L3 lumbrae were isolated for micro-CT or histomorphometric analysis. 3D micro-CT analyses were performed according to a standard protocol. BMD and bone volume were analyzed by CT-analysis software (CTAn, Bruker micro CT, Kontich, Belgium) and images were reconstituted by CT-volume software (CTvol, skyscan, CTAn, Bruker micro CT, Kontich, Belgium).
Supplementary Fig. 16 a Representative image of Von Kossa staining of sham-operated female C57 mice treated with vehicle (Sham, n=4), ovariectomized mice (OVX, n=3), and OVX mice treatment with 1 nmol/kg Kp-10 (n=6),10 nmol/kg Kp-10 (n=6),1 nmol/kg (DSS)*6-Kp-10 (n=5) or 10 nmol/kg (DSS)*6-Kp-10 (n=6) twice one week by intraperitoneal injection for two months. […]

Dusp18 knockout mice = assay: bone and osteoclast parameters in Dusp18 knockout mice; format: in vivo, mouse; settings: femur
From the text: Data represent means ± SEM. […] Representative results were obtained from at least three independent experiments. Source data are provided as a Source Data file.

GPR54 CT [2] = assay: GST pull-down / Co-IP of GPR54 CT with DUSP18, PTPN6 and PPP1CA; format: binding, human; settings: 293T WCL, DUSP18-Flag, PPP1CA-Flag or PTPN6-Flag
Procedure: Supplementary Fig. 3 a, b SPR binding analysis showing the binding affinity of Src and human GPR54^336-356 peptide (a), Src and human GPR54 ^333-344 peptide (b). c, d Anti-Flag IP derived from 293T cells transfected with HA-Src and GPR54-Flag constructs with Kp-10 (10 nM) stimulation (c) and quantification of protein levels (d). e. e IF staining was carried out using pre-osteoclasts differentiated from BMMs in the presence of M-CSF (10 ng/ml) and RANKL (50 ng/ml) for 2 days. Representative images were shown by TIRF microscopy. f, g IB analysis of total samples and GST pull-downs using GST proteins including GST, GST-GPR54 CT incubated separately with WCL of 293T cells transfected with DUSP18-flag, PPP1CA-Flag or PTPN6-Flag (f), and quantification of protein levels (g). Error bars are ± SEM. P-values were determined by two-tailed Student’s t-test (d) or one-way ANOVA analysis (g). *P <0.05, Representative results were observed from at least three independent experiments. Source data are provided as a Source Data file.

GPR54 CT [3] = assay: competitive pull-down assay, His-SRC and His-DUSP18 with GST-GPR54 CT; format: binding, human; settings: His-SRC 0 or 0.1 μg, His-DUSP18 0, 0.1 or 0.2 μg
Procedure: Beads were analyzed by phosphatase activity assay (a), mass spectrometry assay (b), IB analysis (c) and quantification of protein levels (d). e, f Protein co-localization was analyzed by IF staining in primary pre-osteoclast with 10 nM Kp-10 treatment for 20 min. […] Scale bar, 50 µm. g, h binding affinity was measured by SPR binding analysis. […] Data represent means ± SEM. P values were determined by one-way ANOVA analysis (a, d, j, l) or two-tailed Student’s t-test (f). Representative results were obtained from at least three independent experiments. Source data are provided as a Source Data file.

Src (Y416) = assay: in vitro phosphatase activity assay with Src; format: biochemical, human; settings: purified proteins; 30 min at 30 °C; Western blot
Procedure: The C terminus of human GPR54 (H329- L398) and mouse Gpr54 (R331- L396) cDNAs were subcloned into a pGEX-4T2 vector. For purification of full-length WT human DUSP18 and DUSP18 (C104S) proteins, DUSP18 was cloned into pMCSG7 vector. For purification of Src (G85-L536) protein, cDNAs of human Src were subcloned into pFastBac HT B vector with an N-terminal 6xHis tag and expressed in Sf9 cells (Expression Systems) using the Bac-to-Bac Baculovirus Expression System (Invitrogen) for 48 h. For purification of the Src (G85-V247)-GPR54 (333–356 with C338S, C340S mutation) recombinant fusion protein, the C-terminus of GPR54 (333–356 with C338S and C340S mutation) was linked to the C terminus of Src SH3-SH2 domain (G85-V247), which was subcloned into the pMCSG7 vector.
For the total phosphatase activity assay, the Co-IP experiment was carried out after Kp-10 treatment of RAW264.7 cells for 20 min, followed by lysis and incubation with the Gpr54 antibody. The assay was performed according to the phosphatase assay kit (Sigma-Aldrich,17-313). For the DUSP18 phosphatase activity assay, His-DUSP18 and His-DUSP18 (C104S) were purified from E Coli, and His-Src was purified from Sf9 insect cells. His-DUSP18 and His-DUSP18 (C104S) were incubated with His-Src in 1x phosphatase buffer (20 mM HEPES, 20 mM MgCl2, 0.03% β-mercaptoethanol)[51] for 30 min at 30 °C with gentle shaking. […]

Molecule: D-Tyr–Asn-(D-Trp)-Asn-Ser-Phe-(azaGly)-Leu-Arg (Me)-Phe-NH2 [Modified Kp-10]
- GPR54 agonistic activity (GPR54): excellent GPR54 agonistic activity
- metabolic stability [1]: high metabolic stability

Molecule: DSSDSSDSSDSSDSSDSS[dY]N[dW]NSF[azaGly]LR(Me)F-NH2 [(DSS)*6-Kp-10]
- serum FSH and LH, sham and OVX mice (FSH and LH): same level of FSH and LH
- bone mass, 50 nmol/kg, sham and OVX mice (OVX mice; 50 nmol/kg twice per week, micro-CT, femur, n = 6 per group): bone mass increased
- osteoclast activation, 50 nmol/kg, sham and OVX mice (OVX mice; 50 nmol/kg twice per week, TRAP staining, Oc.S/BS, N.Oc/B.Pm, ES/BS, n = 6 per group): suppressed osteoclast activation both in sham-operated and OVX mice
- bone protective effect versus Kp-10 (OVX mice; OVX mice, 1 or 10 nmol/kg twice per week for two months, Von Kossa staining, trabecular bone parameters): rescued OVX induced bone loss more effectively than Kp-10; also recorded: showed better bone protective effect; also recorded: showed better effects than Kp-10 on bone protection
- bone loss / bone protection in vivo (summary statement) (OVX mice; in vivo, OVX-induced bone loss model): showed bone protection in the OVX-induced bone loss model by inhibiting osteoclast activity; also recorded: protects against bone loss
- rescue of Dusp18 deletion induced osteoclast activity (Dusp18 knockout mice; TRAP staining and osteoclast parameters): not by (DSS)*6-KP-10
- rescue of Dusp18 deletion induced bone mass change (Dusp18 knockout mice; micro-CT and bone parameters, n = 5): not by (DSS)*6-KP-10

B1: DUSP18: full-length WT human DUSP18 (protein, UniProt Q8NEJ0 1-188, looked up)
chain: MTAPSCAFPVQFRQPSVSGLSQITKSLYISNGVAANNKLMLSSNQITMVINVSVEVVNTLYEDIQYMQVPVADSPNSRLCDFFDPIADHIHSVEMKQGRTLLHCAAGVSRSAALCLAYLMKYHAMSLLDAHTWTKSCRPIIRPNSGFWEQLIHYEFQLFGKNTVHMVSSPVGMIPDIYEKEVRLMIPL
modifications: full-length His tag
- interaction with GPR54 among DUSP18, PTPN6 and PPP1CA (GPR54 CT [2]): had the strongest interaction with GPR54
- competition with Src for binding to GPR54 CT (GPR54 CT [3]): competed with Src for binding to GPR54 CT
- dephosphorylation of Src (Y416) (Src (Y416)): potently reduced the phosphorylation of Src (Y416)
